# From PMC10795196, “Self-Assembled Materials Based on Fully Aromatic Peptides: The Impact of Tryptophan, Tyrosine, and Dopa Residues” (Langmuir, 2024)
# Non-standard residues stand in square brackets, D forms with d. Residues, ends and D or L forms follow the SMILES beside them. No end group written: not given here. Dopa = N[C@@H](Cc1ccc(O)c(O)c1)C(=O)O; AEEA = NCCOCCOCC(=O)O
# Experiment: Water solubility determined spectroscopically (absorbance at 280 nm)
# Format: physicochemical
# Conditions: direct dissolution of powder in bidistilled water, centrifuged solutions, UV absorbance at 280 nm with calculated ε
# Experimental: Peptide solutions were prepared by direct dissolution of pure powders in bidistilled water. The analytical concentration of solutions was spectroscopically determined by absorbance on a UV–vis Thermo Fisher Scientific Inc. (Wilmington, Delaware, USA) Nanodrop 2000c spectrophotometer equipped with a 1.0 cm quartz cuvette (Hellma) using the molar absorptivity (ε) at 280 nm reported in Table 1. For each peptide, the ε was calculated using the formula ε(280)= [x·5500 + y·1215 + k·2630] [L·cm^–1·mol^–1], where x, y, and k were the numbers of W, Y, and Dopa residues, respectively. […] Hydrogel formation was triggered using the “solvent switch” method, which consists of the addition of water to a peptide stock solution (100 mg/mL in DMSO). The peptide concentration after water addition was 1.0 wt % (10.0 mg/mL).
# To deeply investigate the molecular determinant that can positively or negatively affect the aggregation process, herein, we evaluated the impact generated by replacement of the Phe residue with the Trp (W) one. Trp was selected to assess the effect of a more sterically hindered residue containing the heteroaromatic indole group. On the other side, Tyr residues were replaced by Dopa, characterized by the catechol group in place of the phenol one. Using this design, two novel peptides [(WY)3 and (W-Dopa)3] and their N-PEGylated analogues [PEG8-(WY)3 and PEG8-(W-Dopa)3] were designed (Figure 1). The novel sequences were synthesized using a solid-phase approach, according to the Fmoc/tBu protocols on Rink amide MBHA resin. This support allows for obtaining amidation of the C-terminus. Due to the major steric hindrance of the Trp residue, the synthesis of these primary sequences was more difficult than the previously reported ones and required the employment of a DMF/NMP mixture as solvent. After purification, peptides were lyophilized and their identity was assessed by LC-MS (Figures S1–S4 and Table 1). The estimation of the peptide solubility was spectroscopically determined by recording the absorbance spectra (Figure S5) on the centrifuged peptide solutions. […] As expected, peptides derivatized with the PEG moiety are more soluble than their corresponding unPEGylated versions, thus confirming PEGylation as a helpful strategy to improve intrinsic water solubility of all-aromatic sequences.
row,solubility thermodynamic [µg/mL],Compound
1,1150,WYWYWY-NH2 [(WY)3]
2,7610,NC(=O)[C@H](Cc1ccc(O)c(O)c1)NC(=O)[C@H](Cc1c[nH]c2ccccc12)NC(=O)[C@H](Cc1ccc(O)c(O)c1)NC(=O)[C@H](Cc1c[nH]c2ccccc12)NC(=O)[C@H](Cc1ccc(O)c(O)c1)NC(=O)[C@@H](N)Cc1c[nH]c2ccccc12 [(W-Dopa)3] (H-W[Dopa]W[Dopa]W[Dopa]-NH2)
3,3770,NCCOCCOCC(=O)NCCOCCOCC(=O)NCCOCCOCC(=O)NCCOCCOCC(=O)N[C@@H](Cc1c[nH]c2ccccc12)C(=O)N[C@@H](Cc1ccc(O)cc1)C(=O)N[C@@H](Cc1c[nH]c2ccccc12)C(=O)N[C@@H](Cc1ccc(O)cc1)C(=O)N[C@@H](Cc1c[nH]c2ccccc12)C(=O)N[C@@H](Cc1ccc(O)cc1)C(N)=O [PEG8-(WY)3] (H-[AEEA][AEEA][AEEA][AEEA]WYWYWY-NH2)
4,15000,NCCOCCOCC(=O)NCCOCCOCC(=O)NCCOCCOCC(=O)NCCOCCOCC(=O)N[C@@H](Cc1c[nH]c2ccccc12)C(=O)N[C@@H](Cc1ccc(O)c(O)c1)C(=O)N[C@@H](Cc1c[nH]c2ccccc12)C(=O)N[C@@H](Cc1ccc(O)c(O)c1)C(=O)N[C@@H](Cc1c[nH]c2ccccc12)C(=O)N[C@@H](Cc1ccc(O)c(O)c1)C(N)=O [PEG8-(W-Dopa)3] (H-[AEEA][AEEA][AEEA][AEEA]W[Dopa]W[Dopa]W[Dopa]-NH2)
